Results from ChEMBL document CHEMBL5325486, “Synthesis of novobiocin derivatives and evaluation of their antigonococcal activity and pharmacokinetics” (Bioorg Med Chem, 2023).
≈ marks a conversion by molar mass, not a printed value.

Experiments:
[1] = Effective permeability of compound by PAMPA assay; type: ADME; conditions: read-out: Peff
[2] = Aqueous solubility of compound in neutral JP2 solution; type: physicochemical
Neisseria gonorrhoeae [3] = experiment: Antibacterial activity against Neisseria gonorrhoeae clinical isolate assessed inhibition of bacterial growth; type: functional
Neisseria gonorrhoeae [4] = experiment: Antibacterial activity against ceftriaxone intermediate resistant Neisseria gonorrhoeae assessed inhibition of bacterial growth; type: functional
Staphylococcus aureus = experiment: Antibacterial activity against Staphylococcus aureus assessed inhibition of bacterial growth; type: functional
Neisseria gonorrhoeae [5] = experiment: Antibacterial activity against resistant Neisseria gonorrhoeae assessed inhibition of bacterial growth; type: functional
[6] = Metabolic stability in mouse liver microsomes assessed as residual rate; type: ADME, Microsome
Neisseria gonorrhoeae [7] = experiment: Antibacterial activity against azithromycin resistant Neisseria gonorrhoeae assessed inhibition of bacterial growth; type: functional
[8] = Aqueous solubility of compound in acidic JP1 solution; type: physicochemical
[9] = JP2 solution, read-out: solubility
[10] = JP1 solution, read-out: solubility

Compound	Papp [1] [×10⁻⁶ cm/s]	solubility [2, 9] [µM]	MIC90 (Neisseria gonorrhoeae [3]) [µg/mL]	MIC (Neisseria gonorrhoeae [4]) [µg/mL]	MIC50 (Staphylococcus aureus) [µg/mL]	MIC90 (Staphylococcus aureus) [µg/mL]	MIC50 (Neisseria gonorrhoeae [5]) [µg/mL]	MIC90 (Neisseria gonorrhoeae [5]) [µg/mL]	Stability [6] [%]	MIC (Neisseria gonorrhoeae [7]) [µg/mL]	solubility [8, 10] [µM]	solubility ([2]; buffer) [µM]	solubility ([8]; buffer) [µM]
CO[C@@H]1[C@@H](OC(=O)c2ccc(C)[nH]2)[C@@H](O)[C@H](Oc2ccc3c(O)c(NC(=O)c4ccc(O)c(CC=C(C)C)c4)c(=O)oc3c2C)OC1(C)C	10.3	69.2 (≈ 46.8 µg/mL)	0.063 (≈ 0.0931 µM)	0.063 (≈ 0.0931 µM)	0.008 (≈ 0.0118 µM)	0.08 (≈ 0.118 µM)	0.063 (≈ 0.0931 µM)	0.125 (≈ 0.185 µM)	92.7	0.008 (≈ 0.0118 µM)	< 1		
CO[C@@H]1[C@@H](OC(=O)c2ccc(C)[nH]2)[C@@H](O)[C@H](Oc2ccc3c(O)c(NC(=O)Cn4c(-c5ccccn5)nc5ccccc54)c(=O)oc3c2C)OC1(C)C					0.25 (≈ 0.345 µM)	0.5 (≈ 0.691 µM)	0.5 (≈ 0.691 µM)	0.5 (≈ 0.691 µM)					
CCCn1cnc(C(=O)Nc2c(O)c3ccc(O[C@@H]4OC(C)(C)[C@H](OC)[C@@H](OC(=O)c5ccc(C)[nH]5)[C@H]4O)c(C)c3oc2=O)c1					0.5 (≈ 0.8 µM)	0.5 (≈ 0.8 µM)	1 (≈ 1.6 µM)	1 (≈ 1.6 µM)					
CO[C@@H]1[C@@H](OC(=O)c2ccc(C)[nH]2)[C@@H](O)[C@H](Oc2ccc3c(O)c(NC(=O)c4csc(C)n4)c(=O)oc3c2C)OC1(C)C					0.25 (≈ 0.407 µM)	0.25 (≈ 0.407 µM)	0.25 (≈ 0.407 µM)	0.5 (≈ 0.815 µM)					
CO[C@@H]1[C@@H](OC(=O)c2ccc(C)[nH]2)[C@@H](O)[C@H](Oc2ccc3c(O)c(NC(=O)c4cn(Cc5ccccn5)cn4)c(=O)oc3c2C)OC1(C)C					0.25 (≈ 0.371 µM)	0.5 (≈ 0.742 µM)	0.5 (≈ 0.742 µM)	0.5 (≈ 0.742 µM)					
CO[C@@H]1[C@@H](OC(=O)c2ccc(C)[nH]2)[C@@H](O)[C@H](Oc2ccc3c(O)c(NC(=O)c4cn(Cc5cccc(C(F)(F)F)c5)cn4)c(=O)oc3c2C)OC1(C)C					0.125 (≈ 0.169 µM)	0.25 (≈ 0.338 µM)	0.25 (≈ 0.338 µM)	0.5 (≈ 0.675 µM)					
CO[C@@H]1[C@@H](OC(=O)c2ccc(C)[nH]2)[C@@H](O)[C@H](Oc2ccc3c(O)c(NC(=O)c4cncn4C)c(=O)oc3c2C)OC1(C)C					0.5 (≈ 0.838 µM)	0.5 (≈ 0.838 µM)	0.5 (≈ 0.838 µM)	1 (≈ 1.68 µM)					
CO[C@@H]1[C@@H](OC(=O)c2ccc(C)[nH]2)[C@@H](O)[C@H](Oc2ccc3c(O)c(NC(=O)c4ccc(C)c(C)c4)c(=O)oc3c2C)OC1(C)C	18	79.1 (≈ 49.1 µg/mL)	0.25 (≈ 0.403 µM)		0.016 (≈ 0.0258 µM)	0.016 (≈ 0.0258 µM)	0.125 (≈ 0.201 µM)	0.125 (≈ 0.201 µM)	80.8		< 1		
CC[C@H]1OC(=O)[C@H](C)[C@@H](O[C@H]2C[C@@](C)(OC)[C@@H](O)[C@H](C)O2)[C@H](C)[C@@H](O[C@@H]2O[C@H](C)C[C@H](N(C)C)[C@H]2O)[C@](C)(O)C[C@@H](C)CN(C)[C@H](C)[C@@H](O)[C@]1(C)O [AZITHROMYCIN]					> 128	> 128	0.25 (≈ 0.334 µM)	8 (≈ 10.7 µM)					
CO/N=C(\C(=O)N[C@@H]1C(=O)N2C(C(=O)O)=C(CSc3nc(=O)c(O)nn3C)CS[C@H]12)c1csc(N)n1 [CEFTRIAXONE]					1 (≈ 1.8 µM)	> 128	0.008 (≈ 0.0144 µM)	0.25 (≈ 0.451 µM)					
O=c1ccc2ncc(=O)n3c2n1C[C@H]3CN1CCC(NCc2cc3c(cn2)OCCC3)CC1 [GEPOTIDACIN]	4.19		0.5 (≈ 1.11 µM)						107			67 (≈ 30.1 µg/mL)	63.4 (≈ 28.4 µg/mL)
CO[C@@H]1[C@@H](OC(N)=O)[C@@H](O)[C@H](Oc2ccc3c(O)c(NC(=O)c4ccc(O)c(CC=C(C)C)c4)c(=O)oc3c2C)OC1(C)C [NOVOBIOCIN]					0.25 (≈ 0.408 µM)	0.25 (≈ 0.408 µM)	1 (≈ 1.63 µM)	2 (≈ 3.26 µM)					
CC[C@H]1OC(=O)[C@@](C)(F)C(=O)[C@H](C)[C@@H](O[C@@H]2O[C@H](C)C[C@H](N(C)C)[C@H]2O)[C@](C)(OC)C[C@@H](C)C(=O)[C@H](C)[C@H]2N(CCCCn3cc(-c4cccc(N)c4)nn3)C(=O)O[C@]12C [SOLITHROMYCIN]	0.653	49.4 (≈ 41.7 µg/mL)	0.25 (≈ 0.296 µM)						104		> 80		
C[C@@H]1CN2c3c(cc4c(N5C(=O)OC[C@@H]5C)noc4c3F)CC3(C(=O)NC(=O)NC3=O)[C@H]2[C@H](C)O1 [ZOLIFLODACIN]	0.039	66 (≈ 32.2 µg/mL)	0.063 (≈ 0.129 µM)						94.3		66.3 (≈ 32.3 µg/mL)		
